Values joined by “and” are separate entries in the source; they are usually repeats but may differ in a detail not shown here. Identical values can stand only once. Like-named read-outs stand apart in the source and are kept apart here.
Experiment: Pharmacokinetic study of Compound 20 in ICR mice
Assay type: in vivo
Details: for CLz/F / t1/2Z / concentration at 0 h / concentration at 0.083 h / concentration at 0.25 h / concentration at 0.5 h / concentration at 1 h / concentration at 2 h / concentration at 4 h / concentration at 6 h / concentration at 8 h / concentration at 24 h / AUC(0-inf) / AUC(0-t) / Cmax / Tmax / Vd/F: plasma; for CLz/F / t1/2Z / AUC(0-inf) / AUC(0-t) / Cmax / Tmax / Vd/F: mean; for concentration at 0 h / concentration at 0.083 h / concentration at 0.25 h / concentration at 0.5 h / concentration at 1 h / concentration at 2 h / concentration at 4 h / concentration at 6 h / concentration at 8 h / concentration at 24 h / AUC(0-inf) / AUC(0-t) / Cmax / Tmax / Vd/F: male, mouse; for concentration at 0 h / concentration at 0.083 h / concentration at 0.25 h / concentration at 0.5 h / concentration at 1 h / concentration at 2 h / concentration at 4 h / concentration at 6 h / concentration at 8 h / concentration at 24 h: ICR, 100 mg/kg; for concentration at 6 h / concentration at 24 h: n = 3; for Vd/F: read-out: Vz/F
Experimental: 60 male ICR mice were split into two groups of 30. In each group the mice were prescribed Compound 20 at a dosage of 100 mg/kg. This dose was administered orally in group 1 and intraperitoneally in group 2. Each group of 30 mice was subdivided into groups of 3 mice. Blood samples were taken through orbital sinus method at 0, 0.083, 0.25, 0.5, 1, 2, 4, 6, 8 and 24 hours after administering Compound 20 and taken into tubes with anticoagulant at room temperature at least 30 minutes prior to centrifugation, then centrifuged at 10000 rpm for 5 minutes at 4° C. to separate plasma from the blood samples. Following centrifugation, the resulting serum was transferred to clean tubes and stored frozen at −80° C. Immediately following the blood samples, the brain tissue samples of mice were removed and stored frozen at −80° C.
A 20% brain homogenate was prepared by weighing brain tissue sample and adding, corresponding volume of saline into the manual homogenator. The dilution factor was 5 (w/v=1 g: 4 mL). The brain tissue sample was grinded slowly and repeatedly until it has become homogenous.
Plasma and Brain samples were centrifuged at 15777×g for 5 minutes, and 180 ul of supernatant was placed in a 96-well assay plate. To each well, 200 ul of a 50% ACN/H2O was added and the plates were shake-mixed for 3 minutes. 5 ul aliquots of each well were then analyzed using LC-MS/MS.
The standard non-compartmental model was used to generate the pharmacokinetic parameters: Cmax, Tmax, t1/2, AUC0->last, AUC0->inf, CL/F, and Vz/F. The maximum plasma concentration, Cmax, and its corresponding time, Tmax were directly recorded. Elimination rate constant kel was determined by linear regression of the terminal points of the semi-log plot of concentration against time. Elimination half-life was calculated by the formula; t12=0.693/kel. The Area Under the curve value from time 0 to 24 hours was defined as AUCt->last and calculated using the linear trapezoidal rule.

## COc1cc(N(c2ccccc2)c2ccccc2)ccc1/C=C(\C#N)C(=O)O [Compound 20]
100 mg/kg i.p., 0 h
  Plasma Concentration, individual animals (1#, 2#, 3#): 0 ng/mL
100 mg/kg i.p., 0.083 h
  Plasma Concentration, individual animals (1#, 2#, 3#): 18800 ng/mL and 33300 ng/mL and 40400 ng/mL
100 mg/kg i.p., 0.25 h
  Plasma Concentration, individual animals (1#, 2#, 3#): 78300 ng/mL and 29400 ng/mL and 60100 ng/mL
100 mg/kg i.p., 0.5 h
  Plasma Concentration, individual animals (1#, 2#, 3#): 30400 ng/mL and 30200 ng/mL
100 mg/kg i.p., 1 h
  Plasma Concentration, individual animals (1#, 2#, 3#): 45600 ng/mL and 26900 ng/mL
100 mg/kg i.p., 2 h
  Plasma Concentration, individual animals (1#, 2#, 3#): 27800 ng/mL and 38900 ng/mL
100 mg/kg i.p., 4 h
  Plasma Concentration, individual animals (1#, 2#, 3#): 24000 ng/mL and 26400 ng/mL
100 mg/kg i.p., 6 h
  Plasma Concentration, individual animals (1#, 2#, 3#): 14200 ng/mL and 3980 ng/mL and 5360 ng/mL
100 mg/kg i.p., 8 h
  Plasma Concentration, individual animals (1#, 2#, 3#): 3160 ng/mL and 2590 ng/mL
100 mg/kg i.p., 24 h
  Plasma Concentration, individual animals (1#, 2#, 3#): 41.8 ng/mL and 249 ng/mL and 70.9 ng/mL
100 mg/kg i.p.
  CLz/F: 8.32 mL/min/kg
  t1/2Z: 191 min
100 mg/kg p.o. and i.p.
  pharmacokinetics parameters (overall assessment): satisfactory
100 mg/kg p.o., 0 h
  Plasma Concentration, individual animals (1#, 2#, 3#): 0 ng/mL
100 mg/kg p.o., 0.083 h
  Plasma Concentration, individual animals (1#, 2#, 3#): 4050 ng/mL and 4040 ng/mL
100 mg/kg p.o., 0.25 h
  Plasma Concentration, individual animals (1#, 2#, 3#): 11300 ng/mL and 6400 ng/mL
100 mg/kg p.o., 0.5 h
  Plasma Concentration, individual animals (1#, 2#, 3#): 19100 ng/mL and 20700 ng/mL and 6580 ng/mL
100 mg/kg p.o., 1 h
  Plasma Concentration, individual animals (1#, 2#, 3#): 3610 ng/mL and 4830 ng/mL and 12700 ng/mL
100 mg/kg p.o., 2 h
  Plasma Concentration, individual animals (1#, 2#, 3#): 3270 ng/mL and 1380 ng/mL and 4790 ng/mL
100 mg/kg p.o., 4 h
  Plasma Concentration, individual animals (1#, 2#, 3#): 2880 ng/mL and 5160 ng/mL and 1240 ng/mL
100 mg/kg p.o., 6 h
  Plasma Concentration, individual animals (1#, 2#, 3#): 1470 ng/mL and 2230 ng/mL and 3720 ng/mL
100 mg/kg p.o., 8 h
  Plasma Concentration, individual animals (1#, 2#, 3#): 5780 ng/mL and 2370 ng/mL and 3880 ng/mL
100 mg/kg p.o., 24 h
  Plasma Concentration, individual animals (1#, 2#, 3#): 111 ng/mL and 19.3 ng/mL and 12.8 ng/mL
100 mg/kg p.o.
  CLz/F: 26 mL/min/kg
  t1/2Z: 182 min
ip, 100 mg/kg i.p., 0 h, n = 3, read-out: Plasma Concentration, Mean
  concentration at 0 h: 0 ng/mL
ip, 100 mg/kg i.p., 0 h, read-out: Plasma Concentration, individual animals (1#, 2#, 3#)
  concentration at 0 h: 0 ng/mL
ip, 100 mg/kg i.p., 0.083 h, n = 3, read-out: Plasma Concentration, Mean
  concentration at 0.083 h: 30800 ng/mL
ip, 100 mg/kg i.p., 0.25 h, n = 3, read-out: Plasma Concentration, Mean
  concentration at 0.25 h: 55900 ng/mL
ip, 100 mg/kg i.p., 0.5 h, n = 3, read-out: Plasma Concentration, Mean
  concentration at 0.5 h: 37300 ng/mL
ip, 100 mg/kg i.p., 0.5 h, read-out: Plasma Concentration, individual animals (1#, 2#, 3#)
  concentration at 0.5 h: 51400 ng/mL
ip, 100 mg/kg i.p., 1 h, n = 3, read-out: Plasma Concentration, Mean
  concentration at 1 h: 34800 ng/mL
ip, 100 mg/kg i.p., 1 h, read-out: Plasma Concentration, individual animals (1#, 2#, 3#)
  concentration at 1 h: 31800 ng/mL
ip, 100 mg/kg i.p., 2 h, n = 3, read-out: Plasma Concentration, Mean
  concentration at 2 h: 35200 ng/mL
ip, 100 mg/kg i.p., 2 h, read-out: Plasma Concentration, individual animals (1#, 2#, 3#)
  concentration at 2 h: 38800 ng/mL
ip, 100 mg/kg i.p., 4 h, n = 3, read-out: Plasma Concentration, Mean
  concentration at 4 h: 25100 ng/mL
ip, 100 mg/kg i.p., 4 h, read-out: Plasma Concentration, individual animals (1#, 2#, 3#)
  concentration at 4 h: 25000 ng/mL
ip, 100 mg/kg i.p., 6 h
  concentration at 6 h: 7850 ng/mL
ip, 100 mg/kg i.p., 8 h, n = 3, read-out: Plasma Concentration, Mean
  concentration at 8 h: 2840 ng/mL
ip, 100 mg/kg i.p., 8 h, read-out: Plasma Concentration, individual animals (1#, 2#, 3#)
  concentration at 8 h: 2760 ng/mL
ip, 100 mg/kg i.p., 24 h
  concentration at 24 h: 121 ng/mL
po, 100 mg/kg p.o., 0 h, n = 3, read-out: Plasma Concentration, Mean
  concentration at 0 h: 0 ng/mL
po, 100 mg/kg p.o., 0 h, read-out: Plasma Concentration, individual animals (1#, 2#, 3#)
  concentration at 0 h: 0 ng/mL
po, 100 mg/kg p.o., 0.083 h, n = 3, read-out: Plasma Concentration, Mean
  concentration at 0.083 h: 3430 ng/mL
po, 100 mg/kg p.o., 0.083 h, read-out: Plasma Concentration, individual animals (1#, 2#, 3#)
  concentration at 0.083 h: 2210 ng/mL
po, 100 mg/kg p.o., 0.25 h, n = 3, read-out: Plasma Concentration, Mean
  concentration at 0.25 h: 9130 ng/mL
po, 100 mg/kg p.o., 0.25 h, read-out: Plasma Concentration, individual animals (1#, 2#, 3#)
  concentration at 0.25 h: 9690 ng/mL
po, 100 mg/kg p.o., 0.5 h, n = 3, read-out: Plasma Concentration, Mean
  concentration at 0.5 h: 15500 ng/mL
po, 100 mg/kg p.o., 1 h, n = 3, read-out: Plasma Concentration, Mean
  concentration at 1 h: 7050 ng/mL
po, 100 mg/kg p.o., 2 h, n = 3, read-out: Plasma Concentration, Mean
  concentration at 2 h: 3150 ng/mL
po, 100 mg/kg p.o., 4 h, n = 3, read-out: Plasma Concentration, Mean
  concentration at 4 h: 3090 ng/mL
po, 100 mg/kg p.o., 6 h
  concentration at 6 h: 2470 ng/mL
po, 100 mg/kg p.o., 8 h, n = 3, read-out: Plasma Concentration, Mean
  concentration at 8 h: 4010 ng/mL
po, 100 mg/kg p.o., 24 h
  concentration at 24 h: 47.7 ng/mL
ip, 100 mg/kg i.p.
  AUC(0-inf): 201 µg·h/mL
  AUC(0-t): 201 µg·h/mL
  Cmax: 61300 ng/mL
  Tmax: 30 min
  Vd/F: 2.35 L/kg
po, 100 mg/kg p.o.
  AUC(0-inf): 66 µg·h/mL
  AUC(0-t): 65.7 µg·h/mL
  Cmax: 17500 ng/mL
  Tmax: 40 min
  Vd/F: 6.55 L/kg
